Laboratory results published in patent US20060052597A1, “Aryloxyalkylamine derivatives as h3 receptor ligands” (priority 2002, published 2006).
Where a name gives a salt, the structure may show the parent alone.

Each compound was assayed against T1, histamine H3 receptor (Homo sapiens, UniProt Q9Y5N1) (assay: Histamine H3 functional antagonist assay ([35S]GTPγS SPA on membranes)). Conditions: not given.
T1 construct: expressed in transfected cells; host or cells: CHO K1 cells carrying pSwitch, transfected with pGeneH3 and induced with mifepristone; clone 3H3; membrane preparation
T1 sequence (Q9Y5N1 whole entry): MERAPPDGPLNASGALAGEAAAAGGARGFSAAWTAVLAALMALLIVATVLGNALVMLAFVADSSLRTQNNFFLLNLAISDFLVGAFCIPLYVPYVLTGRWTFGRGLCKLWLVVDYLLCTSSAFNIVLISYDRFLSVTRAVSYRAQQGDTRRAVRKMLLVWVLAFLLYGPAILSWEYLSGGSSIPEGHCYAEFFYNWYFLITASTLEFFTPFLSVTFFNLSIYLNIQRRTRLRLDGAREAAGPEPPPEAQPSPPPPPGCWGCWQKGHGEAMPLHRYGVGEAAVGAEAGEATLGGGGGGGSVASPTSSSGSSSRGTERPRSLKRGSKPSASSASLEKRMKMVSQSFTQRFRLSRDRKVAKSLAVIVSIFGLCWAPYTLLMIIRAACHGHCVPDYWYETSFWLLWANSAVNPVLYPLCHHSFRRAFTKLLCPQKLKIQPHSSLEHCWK
Format: biochemical
Procedure: A membrane preparation containing histamine H3 receptors may be prepared in accordance with the following procedures:
Ligated DNA was transformed into competent DH5α E. coli host bacterial cells and plated onto Luria Broth (LB) agar containing Zeocin™ (an antibiotic which allows the selection of cells expressing the sh ble gene which is present on pGene and pSwitch) at 50 μg ml^−1. Colonies containing the religated plasmid were identified by restriction analysis. DNA for transfection into mammalian cells was prepared from 250 ml cultures of the host bacterium containing the pGeneH3 plasmid and isolated using a DNA preparation kit (Qiagen Midi-Prep) as per manufacturers guidelines (Qiagen).
CHO K1 cells previously transfected with the pSwitch regulatory plasmid (InVitrogen) were seeded at 2×10e6 cells per T75 flask in Complete Medium, containing Hams F12 (GIBCOBRL, Life Technologies) medium supplemented with 10% v/v dialysed foetal bovine serum, L-glutamine, and hygromycin (100 μg ml^−1), 24 hours prior to use. Plasmid DNA was transfected into the cells using Lipofectamine plus according to the manufacturers guidelines (InVitrogen). 48 hours post transfection cells were placed into complete medium supplemented with 500 μg ml^−1 Zeocin™.
10-14 days post selection 10 nM Mifepristone (InVitrogen), was added to the culture medium to induce the expression of the receptor.
Approximately 1×10e7 cells were examined for receptor expression by staining with a rabbit polyclonal antibody, 4a, raised against the N-terminal domain of the histamine H3 receptor, incubated on ice for 60 minutes, followed by two washes in sorting medium.
Following two further washes with Sorting Medium, cells were filtered through a 50 μm Filcon™ (BD Biosciences) and then analysed on a FACS Vantage SE Flow Cytometer fitted with an Automatic Cell Deposition Unit. […] Positively stained cells were sorted as single cells into 96-well plates, containing Complete Medium containing 500 μg ml^−1 Zeocin™ and allowed to expand before reanalysis for receptor expression via antibody and ligand binding studies.
All steps of the protocol are carried out at 4° C. and with pre-cooled reagents. The cell pellet is resuspended in 10 volumes of buffer A2 containing 50 mM N-2-hydroxyethylpiperazine-N′-2-ethanesulfonic acid (HEPES) (pH 7.40) supplemented with […] leupeptin (acetyl-leucyl-leucyl-arginal; Sigma L2884), 25 μg/ml bacitracin (Sigma B0125), 1 mM ethylenediamine tetra-acetic acid (EDTA), 1 mM phenylmethylsulfonyl fluoride (PMSF) and 2×10e-6M pepstain A (Sigma). The cells are then homogenised by 2×15 second bursts in a 1 litre glass Waring blender, followed by centrifugation at 500 g for 20 minutes. The supernatant is then spun at 48,000 g for 30 minutes. The pellet is resuspended in 4 volumes of buffer A2 by vortexing for 5 seconds, followed by homogenisation in a Dounce homogeniser (10-15 strokes). At this point the preparation is aliquoted into polypropylene tubes and stored at −70° C. […]
The plate is then incubated on a shaker at room temperature for 30 minutes followed by centrifugation for 5 minutes at 1500 rpm. The plate is read between 3 and 6 hours after completion of centrifuge run in a Wallac Microbeta counter on a 1 minute normalised tritium count protocol. Data is analysed using a 4-parameter logistic equation. Basal activity used as minimum i.e. histamine not added to well.
In the case of `O=C(c1ccc(OCCCN2CCCCC2)cc1)N1CCN(C(=O)C2CCCCCC2)CC1` [Example E89, 1-[4-(3-Piperidin-1-ylpropoxy)benzoyl]-4-(cycloheptanecarbonyl)-piperazine Hydrochloride], the Kb is reported as < 3.16 nM.

Same assay, conditions: membranes of CHO K1 clone 3H3 expressing human histamine H3; histamine 0.3 μM; guanosine 5'[γ35-S]thiotriphosphate 0.38 nM; read-out: pKb (converted)
For `O=C(c1ccc(OCCCN2CCCCC2)cc1)N1CCN(c2ccccc2)CC1` [Example E1, N-[4-(3-Piperidin-1-ylpropoxy)benzoyl]-4-phenylpiperazine dihydrochloride], the Kb was < 3.16 nM.
In the case of `O=C(c1ccc(OCCCN2CCCCC2)cc1)N1CCN(C(=O)C2CCCCC2)CC1` [Example E57, 1-[4-(3-Piperidin-1-ylpropoxy)benzoyl]-4-(1-cyclohexanecarbonyl)-piperazine hydrochloride], the Kb is reported as < 3.16 nM.
In the case of `O=C(c1ccc(OCCCN2CCCCC2)cc1)N1CCN(C(=O)c2cccs2)CC1` [Example E59, 1-[4-(3-Piperidin-1-ylpropoxy)benzoyl]-4-(thiophen-2-carbonyl)-piperazine Hydrochloride], the Kb is reported as < 3.16 nM.
For `O=C(c1ccc(OCCCN2CCCCC2)cc1)N1CCN(C(=O)N2CCCC2)CC1` [Example E88, 1-[4-(3-Piperidin-1-ylpropoxy)benzoyl]-4-(pyrrolidine-1-carbonyl)-piperazine Hydrochloride], the Kb was < 3.16 nM.
For `C[C@@H]1CN(C(=O)c2ccc(OCCCN3CCCCC3)cc2)C[C@H](C)N1C(=O)c1ccccc1` [Example E100], the Kb was < 3.16 nM.
`O=C(c1ccc(OCCCN2CCCCC2)cc1)N1CCCCC1` [Example E149, N-[4-(3-Piperidin-1-ylpropoxy)benzoyl]piperidine Hydrochloride] was tested, and the Kb was < 3.16 nM.
In the case of `O=C(c1ccc(OCCCN2CCCCC2)cc1C(F)(F)F)N1CCCCC1` [Example E155, N-[2-Trifluoromethyl-4-(3-Piperidin-1-ylpropoxy)benzoyl]piperidine Hydrochloride], the Kb is reported as < 3.16 nM.
With `O=C(N[C@H]1CCN(C(=O)c2ccc(OCCCN3CCCCC3)cc2)C1)c1ccccc1` [Example E156, (S)-N-[4-(3-Piperidin-1-ylpropoxy)benzoyl]-3-benzamidopyrrolidine Dihydrochloride] the Kb was < 3.16 nM.
`O=C(N[C@H]1CCN(C(=O)c2ccc(OCCCN3CCCCC3)cc2)C1)c1cccc2ccccc12` [Example E158, (S)-N-[4-(3-Piperidin-1-ylpropoxy)benzoyl]-3-(naphthalene-1-carboxamidopyrrolidinedihydrochloride] was tested, and the Kb was < 3.16 nM.
For `O=C(c1ccc(OCCCN2CCCCC2)cc1)N1CCC2(CC1)CN(c1ccccc1)C(=O)CO2` [Example E159, 4-Phenyl-9-[4-(3-piperidin-1-ylpropoxy)benzoyl]-1-oxa-4,9-diazaspiro-[5,5]-undecan-3-one hydrochloride], the Kb was < 3.16 nM.
In the case of `O=C1NC2(CCN(C(=O)c3ccc(OCCCN4CCCCC4)cc3)CC2)CN1Cc1ccccc1` [Example E160, 3-Benzyl-8-[4-(3-piperidin-1-ylpropoxy)benzoyl]-1,3,8-triaza-spiro[4.5]-decan-2-one], the Kb is reported as < 3.16 nM.
